Test results as given in patent publication EP0146258A2, “Glycerol derivatives” (ONO PHARMACEUTICAL CO., LTD., priority 1983, dated 1985).

Tested on: mice
Assay: Acute toxicity by intravenous administration
Format: in vivo
Settings: intravenously administered to tail vein in five mice at the dose of 50 mg/kg
Description: On the other hand, it was confirmed that the acute toxicity of all extent of the compounds of the present invention was more than 50 mg/kg by intravenous administration. Therefore, glycerol derivatives of the present invention may be considered to be sufficiently safe and suitable for medical use. For example, the mortality (dead/used) in glycerol derivatives of the present invention, i.e. compounds prepared in Example 1(h) and 11(a) was 0/5 and 0/5, respectively, when each glycerol compound was intravenously administered to tail vein in five mice at the dose of 50 mg/kg.

## CCCCCCCCCCCCCCCCOCC(COCCCCCCC[N+]1(C)CCCC1)NC(C)=O (centres unmarked) [11(a)]
  mortality (dead/used): 0/5

## CCCCCCCCCCCCCCCCOCC(COCCCCCCC[n+]1ccsc1)OCC (centres unmarked) [Example 1(h)]
  mortality (dead/used): 0/5
